Read-outs that look alike come from different tables or passages of the source.
Tests used:
SXR = target: T1, SXR (Homo sapiens, UniProt O75469); experiment: screen against a panel of nuclear receptors: SXR activation; format: cell-based; conditions: nuclear receptor panel
T1 sequence (O75469 1-434): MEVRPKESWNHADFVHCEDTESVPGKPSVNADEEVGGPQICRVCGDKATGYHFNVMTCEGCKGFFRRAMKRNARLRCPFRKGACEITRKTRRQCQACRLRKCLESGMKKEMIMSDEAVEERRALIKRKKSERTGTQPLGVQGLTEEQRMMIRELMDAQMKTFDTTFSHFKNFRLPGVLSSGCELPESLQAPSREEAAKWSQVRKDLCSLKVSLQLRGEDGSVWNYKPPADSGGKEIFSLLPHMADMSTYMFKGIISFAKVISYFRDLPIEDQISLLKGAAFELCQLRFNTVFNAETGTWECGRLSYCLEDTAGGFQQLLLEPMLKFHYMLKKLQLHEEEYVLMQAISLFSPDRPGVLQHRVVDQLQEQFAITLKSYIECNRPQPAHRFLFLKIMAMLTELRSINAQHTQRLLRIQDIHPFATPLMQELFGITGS

FXR = target: T2, FXR (Homo sapiens, UniProt Q96RI1); experiment: cell-based transcription assay, FXR responsive promoter linked to a luciferase reporter; parameters: RE: scale not given here; conditions: for EC50: FXR activation, read-out: EC50; for EC50 / FXR activation (in words): cell-based reporter assay; for RE: RE not defined in the source
T2 construct: using a full length FXR on a natural response element; expressed in transfected cells
T2 sequence (Q96RI1 1-486): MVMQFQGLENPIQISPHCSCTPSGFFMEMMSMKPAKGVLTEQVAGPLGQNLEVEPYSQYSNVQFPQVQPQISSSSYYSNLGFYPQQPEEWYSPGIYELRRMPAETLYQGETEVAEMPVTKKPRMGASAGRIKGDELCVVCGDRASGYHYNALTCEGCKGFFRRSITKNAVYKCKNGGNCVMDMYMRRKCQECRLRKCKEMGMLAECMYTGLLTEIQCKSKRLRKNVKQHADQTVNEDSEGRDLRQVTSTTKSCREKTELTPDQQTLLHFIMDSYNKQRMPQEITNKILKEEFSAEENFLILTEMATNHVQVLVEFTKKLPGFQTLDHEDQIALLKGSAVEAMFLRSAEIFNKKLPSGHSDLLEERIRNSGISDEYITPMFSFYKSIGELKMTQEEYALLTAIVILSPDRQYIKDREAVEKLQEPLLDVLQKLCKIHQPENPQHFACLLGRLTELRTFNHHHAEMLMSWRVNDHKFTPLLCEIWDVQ
Procedure, shortened: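 Cells co-transfected with full-length FXR and a luciferase reporter carrying a natural hormone response element on a minimal promoter.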

**Q.** What does the source list for `COC(=O)/C=C/c1cccc(N(Cc2ccc3c(c2OC)OC(C)(C)C2C3C2(Cl)Cl)C(=O)C2CCCCC2)c1` (stereo not drawn) [Compound 149]?
**A.** SXR activation (in words) (SXR): potently activated SXR; EC50 (FXR): 0.188 µM; RE (FXR; Tables 1-15): 0.50

**Q.** How did the EC50 (FXR; Tables 1-15) turn out when `COC(=O)/C=C/c1cccc(N(Cc2ccc(-c3c(OC)cccc3OC)cc2)C(=O)C2CCCCC2)c1` [Compound 256] was run?
**A.** 0.077 µM

**Q.** What about the RE (FXR; Tables 1-15) of the same compound?
**A.** 0.12

**Q.** What about the “FXR activation (in words)” value (FXR) of the same compound?
**A.** excellent activity

**Q.** Which results are given for `COC(=O)/C=C/c1cccc(N(Cc2ccc(-c3c(OC)cccc3OC)cc2)C(=O)C(C)C)c1` [Compound 257]?
**A.** EC50 (FXR; Tables 1-15): 0.095 µM; RE (FXR; Tables 1-15): 0.10; FXR activation (in words) (FXR): excellent activity

**Q.** How did the EC50 (FXR; Tables 1-15) turn out when `COC(=O)/C=C/c1cccc(N(Cc2ccc(-c3c(OC)cccc3OC)cc2)C(=O)NC(C)C)c1` [Compound 258] was run?
**A.** 0.561 µM

**Q.** And the RE (FXR; Tables 1-15)?
**A.** 0.10

**Q.** Which results are given for `COC(=O)/C=C/c1cccc(N(Cc2ccc(-c3ccc(N(C)C)cc3)cc2)C(=O)C2CCCCC2)c1` [Compound 259]?
**A.** EC50 (FXR): 0.025 µM; RE (FXR; Tables 1-15): 1.72; FXR activation (in words) (FXR): excellent activity

**Q.** How did the EC50 (FXR; Tables 1-15) turn out when `COC(=O)/C=C/c1cccc(N(Cc2ccc(-c3ccc(N(C)C)cc3)cc2)C(=O)C(C)C)c1` [Compound 260] was run?
**A.** 0.057 µM

**Q.** And the RE (FXR; Tables 1-15)?
**A.** 1.07

**Q.** What about the “FXR activation (in words)” value (FXR) of the same compound?
**A.** excellent activity

**Q.** What does the source list for `COC(=O)/C=C/c1cccc(N(Cc2ccc(-c3ccc(N(C)C)cc3)cc2)C(=O)NC(C)C)c1` [Compound 261]?
**A.** EC50 (FXR; Tables 1-15): 0.162 µM; RE (FXR; Tables 1-15): 1.01

**Q.** Which EC50 (FXR; Tables 1-15) does the source give for `COC(=O)/C=C/c1cccc(N(Cc2ccc(-c3ccc(C(C)(C)C)cc3)cc2)C(=O)C2CCCCC2)c1` [Compound 262] here?
**A.** 0.132 µM

**Q.** What about the RE (FXR; Tables 1-15) of the same compound?
**A.** 1.38

**Q.** What does the source list for `COC(=O)/C=C/c1cccc(N(Cc2ccc(-c3ccc(CC(C)C)cc3)cc2)C(=O)C(C)C)c1` [Compound 263]?
**A.** EC50 (FXR; Tables 1-15): 0.343 µM; RE (FXR; Tables 1-15): 0.59

**Q.** Which results are given for `COC(=O)/C=C/c1cccc(N(Cc2ccc(-c3ccc(C(C)(C)C)cc3)cc2)C(=O)NC(C)C)c1` [Compound 264]?
**A.** EC50 (FXR; Tables 1-15): 0.262 µM; RE (FXR; Tables 1-15): 1.02

**Q.** Which results are given for `COC(=O)/C=C/c1cccc(N(Cc2ccc(-c3cccc(OC)c3)cc2)C(=O)C2CCCCC2)c1` [i]?
**A.** EC50 (FXR; Tables 1-15): 0.077 µM; RE (FXR; Tables 1-15): 1.51
